Target: T1, Type-1 angiotensin II receptor (Oryctolagus cuniculus, UniProt P34976)
T1 sequence (P34976 whole entry): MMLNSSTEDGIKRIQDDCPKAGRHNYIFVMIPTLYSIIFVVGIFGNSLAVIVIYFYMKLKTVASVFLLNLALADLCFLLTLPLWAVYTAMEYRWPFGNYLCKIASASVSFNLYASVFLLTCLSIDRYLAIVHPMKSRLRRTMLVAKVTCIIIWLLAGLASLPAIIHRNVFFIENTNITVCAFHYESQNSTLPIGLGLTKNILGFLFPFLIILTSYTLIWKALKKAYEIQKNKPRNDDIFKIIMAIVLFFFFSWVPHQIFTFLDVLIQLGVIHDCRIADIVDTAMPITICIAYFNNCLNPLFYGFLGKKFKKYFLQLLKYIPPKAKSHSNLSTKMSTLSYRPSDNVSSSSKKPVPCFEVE
Test: Antagonist activity at AT1 receptor in rabbit aorta membranes
Type: cell membranes, Membrane

- IC50: 24 nM
Compound: CCCCC(=O)Nc1ccc(C)c(-n2nc(CCCC)n(Cc3ccc(-c4ccccc4S(=O)(=O)NC(=O)c4ccccc4Cl)cc3)c2=O)c1

— ChEMBL document CHEMBL2424659, “Comparative QSAR and pharmacophore analysis for a series of 2,4-dihydro-3H-1,2,4-triazol-3-ones derivatives as angiotensin II AT1 receptor antagonists” (Med Chem Res, 2013)
